Series [1] has as its system human peripheral blood mononuclear cells (PBMC). Briefly: PBMC cytotoxicity assay (CellTiter-Glo). The format is cell-based. To be noted: 2 days, pCC50. The method, then: (§1) Compounds of the present invention were tested via high-throughput cellular assays utilizing detection of kynurenine via mass spectrometry and cytotoxicity as end-points. For the mass spectrometry and cytotoxicity assays, human peripheral blood mononuclear cells (PBMC) (PB003F; AllCells®, Alameda, Calif.) were stimulated with human interferon-γ (IFN-γ) (Sigma-Aldrich Corporation, St. Louis, Mo.) and lipopolysaccharide from Salmonella minnesota (LPS) (Invivogen, San Diego, Calif.) to induce the expression of indoleamine 2, 3-dioxygenase (IDO1). Compounds with IDO1 inhibitory properties decreased the amount of kynurenine produced by the cells via the tryptophan catabolic pathway. Cellular toxicity due to the effect of compound treatment was measured using CellTiter-Glo® reagent (CTG) (Promega Corporation, Madison, Wis.), which is based on luminescent detection of ATP, an indicator of metabolically active cells.
(§2) In preparation for the assays, test compounds were serially diluted 3-fold in DMSO from a typical top concentration of 1 mM or 5 mM and plated at 0.5 μL in 384-well, polystyrene, clear bottom, tissue culture treated plates with lids (Greiner Bio-One, Kremsmünster, Austria) to generate 11-point dose response curves. Low control wells (0% kynurenine or 100% cytotoxicity) contained either 0.5 μL of DMSO in the presence of unstimulated (−IFN-γ/−LPS) PBMCs for the mass spectrometry assay or 0.5 μL of DMSO in the absence of cells for the cytotoxicity assay, and high control wells (100% kynurenine or 0% cytotoxicity) contained 0.5 μL of DMSO in the presence of stimulated (+IFN-γ/+LPS) PBMCs for both the mass spectrometry and cytotoxicity assays.
(§3) Frozen stocks of PBMCs were washed and recovered in RPMI 1640 medium (Thermo Fisher Scientific, Inc., Waltham, Mass.) supplemented with 10% v/v heat-inactivated fetal bovine serum (FBS) (Thermo Fisher Scientific, Inc., Waltham, Mass.), and 1× penicillin-streptomycin antibiotic solution (Thermo Fisher Scientific, Inc., Waltham, Mass.). The cells were diluted to 1,000,000 cells/mL in the supplemented RPMI 1640 medium. 50 μL of either the cell suspension, for the mass spectrometry assay, or medium alone, for the cytotoxicity assay, were added to the low control wells, on the previously prepared 384-well compound plates, resulting in 50,000 cells/well or 0 cells/well respectively. IFN-γ and LPS were added to the remaining cell suspension at final concentrations of 100 ng/ml and 50 ng/ml respectively, and 50 μL of the stimulated cells were added to all remaining wells on the 384-well compound plates. The plates, with lids, were then placed in a 37° C., 5% CO2 humidified incubator for 2 days.
(§4) Following incubation, the 384-well plates were removed from the incubator and allowed to equilibrate to room temperature for 30 minutes. For the cytotoxicity assay, CellTiter-Glo® was prepared according to the manufacturer's instructions, and 40 μL were added to each plate well. After a twenty minute incubation at room temperature, luminescence was read on an EnVision® Multilabel Reader (PerkinElmer Inc., Waltham, Mass.). For the mass spectrometry assay, 10 μL of supernatant from each well of the compound-treated plates were added to 40 μL of acetonitrile, containing 10 μM of an internal standard for normalization, in 384-well, polypropylene, V-bottom plates (Greiner Bio-One, Kremsmünster, Austria) to extract the organic analytes. Following centrifugation at 2000 rpm for 10 minutes, 10 μL from each well of the acetonitrile extraction plates were added to 90 μL of sterile, distilled H2O in 384-well, polypropylene, V-bottom plates for analysis of kynurenine and the internal standard on the RapidFire 300 (Agilent Technologies, Santa Clara, Calif.) and 4000 QTRAP MS (SCIEX, Framingham, Mass.). MS data were integrated using Agilent Technologies' RapidFire Integrator software, and data were normalized for analysis as a ratio of kynurenine to the internal standard. […]
For orientation: ATP-based viability assays read luminescence as a measure of living cells.

The target of series [2] is indoleamine 2, 3-dioxygenase (IDO1) (Homo sapiens, UniProt P14902). Kind of series: IDO1 PBMC RapidFire MS assay (kynurenine detection by mass spectrometry). To be noted: human PBMC stimulated with IFN-γ and LPS, 2 days, pIC50, read-out: PBMC PXC50 (converted). The format is cell-based. Further details: to induce the expression of indoleamine 2, 3-dioxygenase (IDO1); host or cells: human PBMC stimulated with IFN-gamma and LPS. How it is done:
IDO1 PBMC RapidFire MS Assay
as §1, §2, §3, §4

This is an account of results in patent publication US10899754B2, “Modulators of indoleamine 2,3-dioxygenase” (GLAXOSMITHKLINE INTELLECTUAL PROPERTY DEVELOPMENT LIMITED, priority 2016, dated 2021).

Chain of indoleamine 2, 3-dioxygenase (IDO1) (P14902 whole entry): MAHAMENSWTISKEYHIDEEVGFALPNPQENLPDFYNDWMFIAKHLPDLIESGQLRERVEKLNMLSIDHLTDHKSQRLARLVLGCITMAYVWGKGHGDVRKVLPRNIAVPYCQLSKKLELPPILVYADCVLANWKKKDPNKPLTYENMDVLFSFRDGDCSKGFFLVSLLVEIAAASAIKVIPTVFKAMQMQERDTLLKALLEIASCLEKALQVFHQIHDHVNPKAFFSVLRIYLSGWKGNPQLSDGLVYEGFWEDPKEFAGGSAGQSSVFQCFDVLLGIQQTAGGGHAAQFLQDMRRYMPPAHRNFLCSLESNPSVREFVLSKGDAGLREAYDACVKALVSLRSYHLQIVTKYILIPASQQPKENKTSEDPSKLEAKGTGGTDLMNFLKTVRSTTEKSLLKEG

As to `CO[C@H]1CC[C@H](N(CC(C)C)c2ccc([C@H](C)CC(=O)O)cc2Nc2nc(Cl)ns2)CC1` [Example 54, (R)-3-(3-((3-chloro-1,2,4-thiadiazol-5-yl)amino)-4-(isobutyl((1r,4R)-4-methoxycyclohexyl)amino)phenyl)butanoic Acid], the “PBMC TOX PXC50” value in series [1] is under 5. The IC50 in series [2] was 2 nM.

Consider `CNC(=O)c1nnc(Nc2cc(C(C)CC(=O)O)ccc2N(CC(C)C)C2CCCCC2)s1` (stereo not shown) [Example 79], for which the “PBMC TOX PXC50” value in series [1] is recorded as under 5. The IC50 in series [2] is 5.01 nM.

Regarding `CC(C)CN(c1ccc([C@H](C)CC(=O)O)cc1Nc1nc(C(N)=O)c[nH]1)C1CCOCC1` [example 230, (3R)-3-{3-[(4-carbamoyl-1H-imidazol-2-yl)amino]-4-[(2-methylpropyl)(oxan-4-yl)amino]phenyl}butanoic acid], in series [1], the “PBMC TOX PXC50” value is recorded as under 5. For the same compound, the IC50 in series [2] is 3160 nM.

As for `CC(C)CN(c1ccc([C@H](C)CC(=O)O)cc1Nc1cnc(Cl)cn1)C1CCOCC1` [Example 12, (R)-3-(3-((5-chloropyrazin-2-yl)amino)-4-(isobutyl(tetrahydro-2H-pyran-4-yl)amino)phenyl)butanoic Acid], the “PBMC TOX PXC50” value in series [1] is under 5. The IC50 in series [2] is 1 nM.

`CC(C)CN(c1ccc([C@H](C)CC(=O)O)cc1Nc1nc(C#N)c[nH]1)C1CCOCC1` [example 228, (3R)-3-{3-[(4 cyano-1H-imidazol-2-yl)amino]-4-[(2-methylpropyl)(oxan-4-yl)amino]phenyl}butanoic acid]: in series [1], the “PBMC TOX PXC50” value is under 5. Besides, in series [2], the IC50 is 15.8 nM.

In the case of `CC(C)CN(c1ccc([C@H](C)CC(=O)O)cc1Nc1ccc(C(N)=O)cn1)C1CCOCC1` [example 240, (3R)-3-{3-[(5-carbamoylpyridin-2-yl)amino]-4-[(2-methylpropyl)(oxan-4-yl)amino]phenyl}butanoic acid], in series [1], the “PBMC TOX PXC50” value is on record as under 5. Also, the IC50 in series [2] is 2510 nM.

Turning to `CC(C)CN(c1ccc([C@H](C)CC(=O)O)cc1Nc1cnc(C(N)=O)nc1)C1CCOCC1` [example 263, (3R)-3-{3-[(2-carbamoylpyrimidin-5-yl)amino]-4-[(2-methylpropyl)(oxan-4-yl)amino]phenyl}butanoic acid], the “PBMC TOX PXC50” value in series [1] was under 5. The IC50 in series [2] was 501 nM.

For the compound `CC(C)CN(c1ccc(C(C)CC(=O)O)cc1Nc1nnc(C(=O)NC(C)C)s1)C1CCCCC1` (stereo not shown) [example 245, 3-{4-[cyclohexyl(2-methylpropyl)amino]-3-({5-[(propan-2-yl)carbamoyl]-1,3,4-thiadiazol-2-yl}amino)phenyl}butanoic acid], in series [1], the “PBMC TOX PXC50” value is recorded as under 5. Further, the IC50 in series [2] is 398 nM.

Take `CO[C@H]1CC[C@H](N(CC(C)C)c2ccc([C@H](C)CC(=O)O)cc2Nc2nc(C(F)(F)F)ns2)CC1` [Example 50, (R)-3-(4-(isobutyl((1r,4R)-4-methoxycyclohexyl)amino)-3-((3-(trifluoromethyl)-1,2,4-thiadiazol-5-yl)amino)phenyl)butanoic Acid]: in series [1], the “PBMC TOX PXC50” value is under 5. In addition, the IC50 in series [2] was 1.58 nM.

In the case of `CNC(=O)c1n[nH]c(Nc2cc([C@H](C)CC(=O)O)ccc2N(CC(C)C)C2CCOCC2)n1` [example 237, (3R)-3-(3-{[3-(methylcarbamoyl)-1H-1,2,4-triazol-5-yl]amino}-4-[(2-methylpropyl)(oxan-4-yl)amino]phenyl)butanoic acid], the “PBMC TOX PXC50” value in series [1] is under 5. Moreover, in series [2], the IC50 is 200 nM.

With `CC(C)CN(CC(C)C)c1ccc([C@H](C)CC(=O)O)cc1Nc1nc(C(F)(F)F)cn1COCC[Si](C)(C)C` [example 220, (3R)-3-{4-[bis(2-methylpropyl)amino]-3-{[4-(trifluoromethyl)-1-{[2-(trimethylsilyl)ethoxy]methyl}-1H-imidazol-2-yl]amino}phenyl}butanoic acid], the “PBMC TOX PXC50” value in series [1] is listed as under 5. Also, in series [2], the IC50 was 398 nM.

In the case of `CC(C)CN(c1ccc([C@H](C)CC(=O)O)cc1Nc1ncc(C(N)=O)cn1)C1CCOCC1` [example 248, (3R)-3-{3-[(5-carbamoylpyrimidin-2-yl)amino]-4-[(2-methylpropyl)(oxan-4-yl)amino]phenyl}butanoic acid], the “PBMC TOX PXC50” value in series [1] is on record as under 5. In addition, in series [2], the IC50 is over 10000 nM.

For `CC(C)CN(c1ccc(C(C)CC(=O)O)cc1Nc1nnc(C(=O)N(C)C)s1)C1CCCCC1` (stereo not shown) [example 244, 3-{4-[cyclohexyl(2-methylpropyl)amino]-3-{[5-(dimethylcarbamoyl)-1,3,4-thiadiazol-2-yl]amino}phenyl}butanoic acid], the “PBMC TOX PXC50” value in series [1] turned out to be 5.7. The IC50 in series [2] was 50.1 nM.

On to `CC(C)CN(c1ccc([C@H](C)CC(=O)O)cc1Nc1n[nH]c(C#N)n1)[C@H]1CC[C@H](O)CC1` (racemic) [example 224, (3RS)-3-{3-[(5-cyano-1H-1,2,4-triazol-3-yl)amino]-4-[(2-methylpropyl)[(1rs&,4rs&)-4-hydroxycyclohexyl]amino]phenyl}butanoic acid], for which the “PBMC TOX PXC50” value in series [1] was under 5. The IC50 in series [2] was 1580 nM.

Turning to `CC(C)CN(CC(C)C)c1ccc([C@H](C)CC(=O)O)cc1Nc1nc(C(F)(F)F)c[nH]1` [Example 85, (R)-3-(4-(diisobutylamino)-3-((4-(trifluoromethyI)-1H-imidazol-2-yl)amino)phenyl)butanoic Acid], the “PBMC TOX PXC50” value in series [1] was under 5. Besides, the IC50 in series [2] was 2.51 nM.

With `CC(C)CN(c1ccc([C@H](C)CC(=O)O)cc1Nc1ccc(C(N)=O)nc1)C1CCOCC1` [example 239, (3R)-3-{3-[(6-carbamoylpyridin-3-yl)amino]-4-[(2-methylpropyl)(oxan-4-yl)amino]phenyl}butanoic acid], in series [1], the “PBMC TOX PXC50” value is on record as under 5. For the same compound, in series [2], the IC50 is 25.1 nM.

On to `CC(C)CN(c1ccc([C@H](C)CC(=O)O)cc1Nc1ncc(C#N)cn1)C1CCOCC1` [example 254, (3R)-3-{3-[(5-cyanopyrimidin-2-yl)amino]-4-[(2-methylpropyl)(oxan-4-yl)amino]phenyl}butanoic acid], for which, in series [1], the “PBMC TOX PXC50” value was under 5. Further, in series [2], the IC50 was 126 nM.

Turning to `CO[C@H]1CC[C@@H](N(CC(C)C)c2ccc([C@H](C)CC(=O)O)cc2Nc2nc(C(F)(F)F)c[nH]2)CC1` [Example 62, (R)-3-(4-(isobutyl((cis)-4-methoxycyclohexyl)amino)-3-((4-(trifluoromethyl)-1H-imidazol-2-yl)amino)phenyl)butanoic Acid], the “PBMC TOX PXC50” value in series [1] is under 5. Further, the IC50 in series [2] was 3.98 nM.

Take `CC(C)CN(c1ccc(-c2ccccc2C(=O)O)cc1Nc1nc(C(F)(F)F)ns1)C1CC2(C1)CN(C(=O)OC(C)(C)C)C2` [Example 97, 4′-((2-(tert-butoxycarbonyl)-2-azaspiro[3.3]heptan-6-yl) (isobutyl)amino)-3′-((3-(trifluoromethyl)-1,2,4-thiadiazol-5-yl)amino)-[1,1′-biphenyl]-2-carboxylic Acid]: the “PBMC TOX PXC50” value in series [1] was under 5. Besides, the IC50 in series [2] is 6.31 nM.

Turning to `CC(C)CN(c1ccc([C@H](C)CC(=O)O)cc1Nc1n[nH]c(C(F)(F)F)n1)C1CCCCC1` [Example 78, (R)-3-(4-(cyclohexyl(isobutyl)amino)-3-((5-(trifluoromethyl)-1H-1,2,4-triazol-3-yl)amino)phenyl)butanoic Acid], in series [1], the “PBMC TOX PXC50” value was under 5. The IC50 in series [2] was 3.16 nM.
